According to ChEMBL document CHEMBL1126967, “Synthetic pterocarpans with anti-HIV activity” (Bioorg Med Chem Lett, 1993):

Assays:
[1] = tested on: CCRF-CEM; experiment: Compound tested in Vitro for inhibition of cytopathic activity of HIV-1 on T4 lymphocytes (CEM cells); Inactive; assay type: functional, cell-based, Homo sapiens
[2] = tested on: CCRF-CEM; experiment: Compound tested in vitro for inhibition of cytopathic activity of AZT-resistant HIV-1 on T4 lymphocytes (CEM cells); assay type: functional, cell-based; settings: Homo sapiens
[3] = tested on: CCRF-CEM; experiment: Compound tested in vitro for inhibition of cytopathic activity of AZT-resistant SIV on T4 lymphocytes (CEM cells): IA denotes inactive; assay type: functional, cell-based, Homo sapiens
[4] = tested on: CCRF-CEM; experiment: Compound tested in vitro for inhibition of cytopathic activity of AZT-sensitive HIV-1 on T4 lymphocytes (CEM cells); assay type: functional, cell-based; settings: Homo sapiens
[5] = tested on: CCRF-CEM; experiment: Compound tested in vitro for inhibition of cytopathic activity of AZT-sensitive HIV-2 on T4 lymphocytes (CEM cells): IA denotes inactive; assay type: functional, cell-based, Homo sapiens
[6] = tested on: CCRF-CEM; experiment: Compound tested in vitro for inhibition of cytopathic activity of AZT-sensitive SIV on T4 lymphocytes (CEM cells): IA denotes inactive; assay type: functional, cell-based, Homo sapiens
[7] = tested on: CCRF-CEM; experiment: Compound tested in vitro for inhibition of cytopathic activity of Merck-resistant variant of AZT-resistant HIV-l (A17) on T4 lymphocytes (CEM cells): IA denotes inactive; assay type: functional, cell-based, Homo sapiens
[8] = tested on: CCRF-CEM; experiment: Compound tested in vitro for inhibition of cytopathic activity of Merck-resistant variant of AZT-sensitive HIV-l (A17) on T4 lymphocytes (CEM cells): IA denotes inactive; assay type: functional, cell-based, Homo sapiens
[9] = tested on: CCRF-CEM; experiment: Compound tested in vitro for inhibition of cytopathic activity of HIV-1 on T4 lymphocytes (CEM cells); assay type: functional, cell-based; settings: Homo sapiens
[10] = tested on: CCRF-CEM; experiment: Compound tested in vitro for inhibition of cytopathic activity of AZT-resistant HIV-2 on T4 lymphocytes (CEM cells): IA denotes inactive; assay type: functional, cell-based, Homo sapiens
[11] = tested on: CCRF-CEM; experiment: Compound tested in Vitro for inhibition of cytopathic activity of HIV-1 on T4 lymphocytes (CEM cells); assay type: functional, cell-based; settings: Homo sapiens

| SMILES | EC50 [1] | IC50 [1] | EC50 [11] [µM] | IC50 [11] [µM] | also measured |
| --- | --- | --- | --- | --- | --- |
| COc1ccc2c(c1)OCC1c3cc(O)c(OCc4ccccc4)cc3OC21 (stereo not given) |  |  |  |  | EC50 [2]: 1.3 µM; EC50 [3]: Not Active; EC50 [4]: 3.6 µM; EC50 [5]: Not Active; EC50 [6]: Not Active; EC50 [7]: Not Active; EC50 [8]: Not Active; EC50 [9]: 1.21 µM; IC50 [9]: 40.5 µM; EC50 [10]: Not Active |
| COc1ccc2c(c1)OCC1c3cc(OC)c(OCc4ccccc4)cc3OC21 (stereo not given) |  |  | 5.7 | 69.4 |  |
| COc1cc2c(c(C)c1O)C1COc3ccccc3C1O2 (stereo not given) | Not Active | Not Active |  |  |  |
| COc1ccc2c(c1)OCC1c3cc(O)c(OCc4cccc5ccccc45)cc3OC21 (stereo not given) |  |  | 0.43 | 38.5 |  |
| COc1ccc2c(c1)OCC1c3ccc(OCc4ccccc4)cc3OC21 (stereo not given) |  |  | 31.2 | 200 |  |
| COc1cc2c(cc1O)C1COc3ccccc3C1O2 (stereo not given) | Not Active | Not Active |  |  |  |
| COc1ccc2c(c1)OCC1c3cc(O)c(OCC4CCCCC4)cc3OC21 (stereo not given) |  |  | 1.46 | 22.2 |  |
| COc1ccc2c(c1)OC1c3ccc(OC)cc3OCC21 (stereo not given) | Not Active | Not Active |  |  |  |
| COc1ccc2c(c1)OCC1c3cc(CC=C(C)C)c(OCc4ccccc4)cc3OC21 (stereo not given) | Not Active | Not Active |  |  |  |
| COc1ccc2c(c1)OCC1c3cc(O)c(OC)cc3OC21 (stereo not given) | Not Active | Not Active |  |  |  |

Now from value to compound, other results behind:

| EC50 [1] | IC50 [1] | EC50 [11] [µM] | IC50 [11] [µM] | SMILES | also measured |
| --- | --- | --- | --- | --- | --- |
| Not Active | Not Active |  |  | Oc1cc2c(cc1OCc1ccccc1)OC1c3ccccc3OCC21 (stereo not given) |  |
| Not Active | Not Active |  |  | COc1ccc2c(c1)OCC1c3cc4c(cc3OC21)OCO4 (stereo not given) |  |
| Not Active | Not Active |  |  | COC(=O)c1c(O)ccc2c1C1COc3cc(OC)ccc3C1O2 (stereo not given) |  |
|  |  | 3.35 | 34.2 | COc1ccc2c(c1)OCC1c3cc(O)c(OCc4ccc5ccccc5c4)cc3OC21 (stereo not given) |  |
| Not Active | Not Active |  |  | COC(=O)c1c(O)ccc2c1C1COc3ccccc3C1O2 (stereo not given) |  |
|  |  | 2.28 | 24.5 | COc1ccc2c(c1)OCC1c3cc(O)c(OCC(C)C)cc3OC21 (stereo not given) |  |
